Results taken from ChEMBL document CHEMBL2040846, “A new 9,11-secosterol from the soft coral Sinularia granosa” (Bioorg Med Chem Lett, 2012).
In brackets after ≈: the same amount, converted by molar mass.

How the values were obtained:
HeLa = test: Antiproliferative activity against human HeLa cells after 6 days by MTT assay; type: functional; details: 144 h, read-out: ED50 (the source's name)
RAW264.7 [1] = test: Antiinflammatory activity in mouse RAW264.7 cells assessed as inhibition of LPS-induced COX2 expression at 10 uM incubated for 10 mins prior to LPS-challenge measured after 16 hrs by Western blot analysis relative to control; type: functional
RAW264.7 [2] = test: Effect on beta-actin protein expression in LPS-induced mouse RAW264.7 cells at 10 uM incubated for 10 mins prior to LPS-challenge measured after 16 hrs by Western blot analysis relative to control; type: ADME, cell-based; details: raw264.7, 16 h
RAW264.7 [3] = test: Antiinflammatory activity in mouse RAW264.7 cells assessed as inhibition of LPS-induced iNOS expression at 10 uM incubated for 10 mins prior to LPS-challenge measured after 16 hrs by Western blot analysis relative to control; type: functional
Daoy = test: Antiproliferative activity against human DaOY cells after 6 days by MTT assay; type: functional; details: 144 h, read-out: ED50 (the source's name)
MCF7 = test: Antiproliferative activity against human MCF7 cells after 6 days by MTT assay; type: functional; details: MCF7, 144 h, read-out: ED50 (the source's name)
HEp-2 = test: Antiproliferative activity against human Hep2 cells after 6 days by MTT assay; type: functional; details: HEp-2, 144 h, read-out: ED50 (the source's name)
RAW264.7 [4] = test: Toxicity against mouse RAW264.7 cells; type: cell-based

SMILES	EC50 (HeLa) [µg/mL]	inhibition at 10 µM (RAW264.7 [1]) [%]	Activity (RAW264.7 [2]) [%]	inhibition at 10 µM (RAW264.7 [3]) [%]	EC50 (Daoy) [µg/mL]	EC50 (MCF7) [µg/mL]	EC50 (HEp-2) [µg/mL]	Activity (RAW264.7 [4])
C=C(CC[C@@H](C)[C@H]1CC[C@@H]([C@H]2C[C@@H]3O[C@@]34C[C@@H](O)CC[C@]4(C)C2=O)[C@]1(C)CCO)C(C)C	8.21 (≈ 18.4 µM)	42.7	102.3	66.1	5.53 (≈ 12.4 µM)	4.99 (≈ 11.2 µM)	6.21 (≈ 13.9 µM)	Non-toxic
C=C(CC[C@@H](C)[C@H]1CC[C@@H]([C@@H]2C[C@H]3O[C@]34C[C@@H](O)CC[C@]4(C)C2=O)[C@]1(C)CCO)C(C)C	> 40		108.9	19.4	7.07 (≈ 15.8 µM)	9.98 (≈ 22.3 µM)	> 40	Non-toxic
CO[C@@]12[C@H](COC(N)=O)C3=C(C(=O)C(C)=C(N)C3=O)N1C[C@@H]1N[C@@H]12 [MITOMYCIN]	0.13 (≈ 0.389 µM)				0.08 (≈ 0.239 µM)	0.09 (≈ 0.269 µM)	0.12 (≈ 0.359 µM)	
